Data as given in BindingDB's records for PubMed 35144038 (Shaoxing University, 2022).
pIC50: −log10 of the molar value.

Target: High affinity cGMP-specific 3',5'-cyclic phosphodiesterase 9A (Homo sapiens, UniProt O76083)
Test: Inhibition of recombinant human PDE9A1 by radiometric assay

Chain of High affinity cGMP-specific 3',5'-cyclic phosphodiesterase 9A (O76083 whole entry): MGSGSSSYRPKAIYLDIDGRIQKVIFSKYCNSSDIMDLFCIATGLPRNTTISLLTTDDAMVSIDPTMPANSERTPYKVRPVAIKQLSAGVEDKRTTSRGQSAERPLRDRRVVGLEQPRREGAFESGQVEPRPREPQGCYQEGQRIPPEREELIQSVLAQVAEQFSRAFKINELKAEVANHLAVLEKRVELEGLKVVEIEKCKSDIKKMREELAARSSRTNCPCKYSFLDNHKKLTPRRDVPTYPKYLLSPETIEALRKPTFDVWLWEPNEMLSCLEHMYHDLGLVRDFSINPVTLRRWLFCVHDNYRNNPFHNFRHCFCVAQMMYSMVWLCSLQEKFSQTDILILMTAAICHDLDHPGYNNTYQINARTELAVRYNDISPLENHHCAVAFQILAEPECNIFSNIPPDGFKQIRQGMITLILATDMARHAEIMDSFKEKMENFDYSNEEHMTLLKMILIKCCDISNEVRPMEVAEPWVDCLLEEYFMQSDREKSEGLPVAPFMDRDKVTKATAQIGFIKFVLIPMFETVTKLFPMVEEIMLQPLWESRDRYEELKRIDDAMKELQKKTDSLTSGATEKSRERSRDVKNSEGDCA

pIC50: 8.09
Structure (SMILES): C[C@@H]1CN(Cc2ncccn2)C[C@H]1c1cn2c(C3CCOCC3)ncc2c(=O)[nH]1 [US10513524, Compound (P3]
